From ChEMBL document CHEMBL1201862, “PubChem BioAssay data set” (2004) come the findings set out here.

Among the test systems are EKVX; HCT-15; MOLT-4; HT-29; SK-MEL-2; CCRF-CEM; A498; 786-0; SR; OVCAR-3; LOX IMVI; SK-MEL-5; MDA-MB-435; HCT-116; NCI-H23; Malme-3M; A549; M14; Hs-578T; BT-549.
Holding throughout (assay): NCI-60 cell line screen, 48 h

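These data come from cells grown in 96-well plates and exposed to compound for 48 hours at five concentrations. Here, GI50 denotes the concentration required for 50% inhibition of growth.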 The source made the active and inactive calls. Rule as the data show it: active = GI50 up to about 1.1 µM and inactive = higher. A value given as a limit tells only on which side of the number the result lay.

With `O=C1c2cc(CCl)sc2C(=O)c2ccsc21`, the GI50 is 1.24 µM (inactive) in the test on EKVX; 0.393 µM in the test with HCT-15; 0.179 µM (active) in the test with MOLT-4; 1.16 µM (inactive) with HT-29; 0.153 µM (active) in the test with SK-MEL-2; 0.173 µM (active) in the test on CCRF-CEM. The GI50 in the test with A498 was 1.63 µM (inactive); in the test on 786-0, 1.53 µM (inactive); in the test on SR, 0.142 µM (active); in the test with OVCAR-3 it was 0.207 µM (active); with LOX IMVI, < 0.0248 µM (active); with SK-MEL-5 it was 0.0416 µM (active). For the same compound, the GI50 in the test on MDA-MB-435 was 0.0187 µM (active); in the test with HCT-116, 0.189 µM (active); with NCI-H23 it was 0.0618 µM (active); in the test on Malme-3M, 0.0387 µM (active); in the test on A549 it was 0.199 µM (active); in the test with M14 it was < 0.0187 µM (active). Further, the GI50 with Hs-578T is 0.233 µM (active).

In the case of `O=C(N/N=C(COc1ccc([N+](=O)[O-])cc1)\N=C\c1ccncc1)c1ccncc1`, the GI50 was > 100 µM (inactive) with EKVX; above 100 µM with HCT-15; > 100 µM (inactive) in the test on MOLT-4; > 100 µM (inactive) with HT-29; > 100 µM (inactive) in the test with SK-MEL-2; > 100 µM (inactive) in the test with CCRF-CEM. Moreover, the GI50 in the test with BT-549 is > 100 µM (inactive); in the test with A498, > 100 µM (inactive); in the test on 786-0 it was > 100 µM (inactive); with OVCAR-3, > 100 µM (inactive); with LOX IMVI, 0.564 µM (active); with MDA-MB-435 it was > 100 µM (inactive). In addition, the GI50 in the test with HCT-116, with NCI-H23, in the test on Malme-3M, in the test on A549 and with M14 was > 100 µM (inactive) each time.

Regarding `O=[N+]([O-])c1ccc(N/N=C/CC(O)(C(F)(F)F)C(F)(F)F)c([N+](=O)[O-])c1`, the GI50 with EKVX is 5.35 µM (inactive); with HCT-15, 3.01 µM; with MOLT-4 it was 3.78 µM (inactive); with HT-29 it was 4.38 µM (inactive); in the test with SK-MEL-2, 2.21 µM (inactive); in the test with CCRF-CEM it was 3.99 µM (inactive). Further, the GI50 with A498 was 3.78 µM (inactive); in the test with 786-0 it was 5.04 µM (inactive); in the test with SR it was 5.06 µM (inactive); in the test on OVCAR-3, 2.8 µM (inactive); with LOX IMVI, 5.55 µM (inactive); in the test on SK-MEL-5, 4.55 µM (inactive). Besides, the GI50 in the test on MDA-MB-435 was 4.13 µM (inactive); in the test with HCT-116, 3.03 µM (inactive); with NCI-H23, 2.77 µM (inactive); in the test with Malme-3M it was 4.97 µM (inactive); in the test on A549, 4.69 µM (inactive); with M14, > 10 µM (inactive). Besides, the GI50 in the test on Hs-578T is 2.74 µM (inactive).

Take `CC(=O)NC(C)(C)C1CCC(C)=C(c2ccccc2)C1` (stereo not given): the GI50 is > 100 µM (inactive) in the test with EKVX; 74 µM with HCT-15; > 100 µM (inactive) in the test on MOLT-4; > 100 µM (inactive) in the test with HT-29; 96.8 µM (inactive) with CCRF-CEM; > 100 µM (inactive) in the test on BT-549. Moreover, the GI50 in the test with 786-0, in the test with SR, with OVCAR-3, in the test with LOX IMVI, with SK-MEL-5 and with MDA-MB-435 was > 100 µM (inactive) in each case. Further, the GI50 in the test with HCT-116 was 87.5 µM (inactive); in the test with NCI-H23, > 100 µM (inactive); with A549 it was > 100 µM (inactive); in the test on M14 it was > 100 µM (inactive).

Take `CNC(=O)NCCCCC(NC(=O)OCc1ccccc1)C(=O)OCc1ccccc1` (stereo not given): the GI50 in the test on EKVX is 98.9 µM (inactive); in the test on HCT-15, above 100 µM; with MOLT-4, 20.8 µM (inactive); in the test on HT-29, 71.4 µM (inactive); with SK-MEL-2 it was 22 µM (inactive); in the test on CCRF-CEM it was 17.9 µM (inactive). The GI50 with A498 was > 100 µM (inactive); with 786-0, 17.5 µM (inactive); in the test on SR it was 27.4 µM (inactive); in the test on OVCAR-3, 16.1 µM (inactive); with LOX IMVI it was 16.7 µM (inactive); with SK-MEL-5, 48.6 µM (inactive). Besides, the GI50 with HCT-116 is 51.6 µM (inactive); with NCI-H23 it was 29.3 µM (inactive); with Malme-3M it was 14.4 µM (inactive); in the test with A549, 31.6 µM (inactive); with M14, 16.5 µM (inactive).

Regarding `O=C1NC(Nc2ccccc2)=NC(C(F)(F)F)(C(F)(F)F)N1`, the GI50 was 38.4 µM (inactive) in the test on EKVX; 51.1 µM in the test on HCT-15; 54.5 µM (inactive) with MOLT-4; 56.2 µM (inactive) in the test with HT-29; 19.9 µM (inactive) in the test on SK-MEL-2; 48.6 µM (inactive) in the test with CCRF-CEM. The GI50 in the test on 786-0 was 39.1 µM (inactive); with SR it was 40.1 µM (inactive); with OVCAR-3, 37.9 µM (inactive); in the test with LOX IMVI it was 37.2 µM (inactive); in the test with SK-MEL-5, 25.1 µM (inactive); with MDA-MB-435, 43 µM (inactive). Also, the GI50 is 34.6 µM (inactive) in the test with HCT-116; 23.4 µM (inactive) in the test with NCI-H23; 30.1 µM (inactive) in the test with Malme-3M; 40.9 µM (inactive) in the test with A549; 21.4 µM (inactive) with M14; 55.3 µM (inactive) in the test on Hs-578T.

For the compound `CCOC(=O)C(NC(=O)c1ccc(/N=N/N(C)C)cc1)C(C)C` (stereo not given), the GI50 is > 100 µM (inactive) in the test with EKVX; above 100 µM with HCT-15; > 100 µM (inactive) in the test with MOLT-4; > 100 µM (inactive) with HT-29; > 100 µM (inactive) in the test with SK-MEL-2; > 100 µM (inactive) with CCRF-CEM. For the same compound, the GI50 in the test with A498, in the test with 786-0, with SR, in the test with OVCAR-3, in the test on LOX IMVI and in the test with SK-MEL-5 was > 100 µM (inactive) each time. Moreover, the GI50 in the test on HCT-116, with NCI-H23, in the test on Malme-3M, with A549 and with M14 was > 100 µM (inactive) throughout.

On to `Cn1cc2ccccc2c1-c1nc(N)nc(F)n1`, for which the GI50 with EKVX was 64.4 µM (inactive); in the test on HCT-15, above 100 µM; in the test with MOLT-4 it was > 100 µM (inactive); with HT-29 it was > 100 µM (inactive); in the test with SK-MEL-2, > 100 µM (inactive); in the test on CCRF-CEM, > 100 µM (inactive). Also, the GI50 in the test with A498 is 15.6 µM (inactive); in the test with 786-0, > 100 µM (inactive); in the test with SR, > 100 µM (inactive); in the test with OVCAR-3 it was > 100 µM (inactive); with LOX IMVI it was > 100 µM (inactive); in the test on SK-MEL-5, > 100 µM (inactive). For the same compound, the GI50 is > 100 µM (inactive) with HCT-116; > 100 µM (inactive) with NCI-H23; 56.1 µM (inactive) in the test with Malme-3M; > 100 µM (inactive) in the test on A549; > 100 µM (inactive) in the test with M14.
